From patent US20080269161A1, “Compositions and Methods Relating to Mitochondrial Hyperpolarization in Neurological Disease” (priority 2005, published 2008)
Entries after “also recorded” stand apart in the source; their conditions may differ.

How the values were obtained:
hippocampal neurons = experiment: Dendrite beading and spine loss in hippocampal neurons in vitro; format: cell-based, rat; conditions: cPAF 130 nM, 60 hours
From the text: (A) cPAF causes dendrite beading and loss of dendritic spines. (A′) Low-magnification images show minimal changes in dendrite morphology and total spine number in control cultures (left). In cPAF-treated cultures (right), dendrite beading (red arrows) is accompanied by spine loss and sprouting of filopodia (green arrowheads) but gross aspects of dendrite structure are preserved. (B) No cells developed dendritic swellings in control cultures, while 55±3% of cPAF-exposed cells beaded. (C) 43±5% of dendritic spines were lost during cPAF exposure, while total spine number was maintained in control cultures.
An additional pathologic consequence of exposure to HIV-1 neurotoxins is an increase in oxidized cellular phospholipids that can bind to and activate the PAF-R [Marathe, G. K., et al., Vascul Pharmacol, 2002. 38(4): p. 193-200]. Both energetic stress and PAF-R signaling have the potential to impair post-synaptic neurotransmission. Thus, a morphologic correlate of dendrite damage in HAD was identified, which is activity-induced dendritic swelling or “beading” in the presence of the HIV neurotoxin cPAF. […]
(3) Primary rat hippocampal neurons (HN). […] Dissociated cells are counted by trypan blue viability assay and plated in cell culture plates at 0.5-0.6×10^5 cells/cm^2, on poly-D-lysine-coated cell culture plastic or sterile glass coverslips. […]

[1] = system: mitochondrial membrane potential of rat cortical neurons; format: cell-based; conditions: neurotoxin alone
Experimental: Curve fits are non-formulaic software interpolations of the data points.
Changes in mitochondrial function that could be associated with the increased vesicular activity were evaluated. Mitochondria generate the energy for synaptic transmission in the form of ATP, and as a byproduct of this oxidative phosphorylation, they are also one of the primary producers of intracellular ROS. Two key mitochondrial parameters were examined in response to Tat and PAF: 1) mitochondrial membrane potential (ΔΨm) [as assessed by mitochondrial uptake of the lipophilic cationic dyes tetramethylrhodamine ethyl or methyl ester (TMRE or TMRM respectively)], and 2) ATP production (as measured by luciferase assay). The electronegative mitochondrial membrane potential provides the driving force for calcium buffering and ATP production by the mitochondria, and as such, ΔΨm is frequently used as an indicator of mitochondrial health and energetic capacity. Moreover, fluctuations in ΔΨm can trigger mitochondrial release of pro-apoptotic factors, an event most frequently associated with a loss of ΔΨm.
Monitoring alterations in ΔΨm with TMRM: In the relevant methods described herein, changes in mitochondrial membrane potential (ΔΨm) in response to Tat or PAF treatment is assessed by TMRM, which must equilibrate across the plasma membrane before entering the mitochondria; and in whole cell applications dye concentration in the mitochondria is dependent on both plasma membrane potential (ΔΨp) and AΨm. At sufficiently low dye concentrations (TMRM =1 nM, i.e. high cell/dye ratio) and normal membrane potentials, ≧95% of the dye is in the mitochondria, and ≦1% in the media, which results in an approximately 100× sensitivity of the dye to ΔΨm over ΔΨp, given equivalent changes in plasma or mitochondrial membrane potential [Rottenberg, H. and S. Wu, Biochim Biophys Acta, 1998. 1404(3): p. 393-40].
For these methods, primary rodent neurons are treated with reagent under normal culture conditions for the indicated time period, followed by removal of the media, 1×2 minute wash in pre-warmed 37° C. HBSS plus 10 mM glucose and 10 mM HEPES (HBSS+), then incubation in HBSS+ with 1 nM TMRE/M. Following equilibration of the dye for 20 minutes to ensure distribution across the mitochondrial membrane, the cells are imaged while remaining in the 1 nM TMRE/M solution, as is necessary for a continued dye equilibrium state. Random field images are taken using an Olympus IX-70 microscope and 40× objective (fluorescent excitation: 545; emission: 610) and Apogee KX32ME CCD camera, and the mean relative fluorescent unit (RFU) value of the neuronal soma and processes (excluding mitochondria deficient regions) is quantified using Scanalytics IPLab software.

## CCCCCCCCCCCCCCCCOC[C@H](COP(=O)([O-])OCC[N+](C)(C)C)OC(=O)NC [PAF, carbamyl-platelet-activating factor]
Hippocampal neurons
  cells with dendrite beading: 55±3%
  dendritic spines lost: 43±5%
[1]
  effect on ΔΨm: dose dependent increases; also recorded: dose-dependent rise
